How the values were obtained:
[1] = biological target: human PPARγ LBD (Homo sapiens, UniProt P37231); conditions: FIG. 1
Sequence of human PPARγ LBD (P37231 238-503 limits assumed): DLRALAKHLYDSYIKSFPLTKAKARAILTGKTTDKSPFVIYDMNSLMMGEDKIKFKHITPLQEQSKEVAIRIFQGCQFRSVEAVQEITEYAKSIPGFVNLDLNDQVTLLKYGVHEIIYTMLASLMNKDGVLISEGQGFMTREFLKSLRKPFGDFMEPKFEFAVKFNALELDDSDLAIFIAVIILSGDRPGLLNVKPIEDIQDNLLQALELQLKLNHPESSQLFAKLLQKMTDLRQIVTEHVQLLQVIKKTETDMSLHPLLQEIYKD

With `O=C(Nc1ccc(OCc2cccs2)cc1C(=O)[O-])c1ccc(Cl)cc1Cl.[Li+]` [Example 1, Lithium 2-[(2,4-dichlorobenzoyl)amino]-5-(2-thienylmethoxy)benzoate] the “location of the compound in the structure of the human PPARγ LBD complex” value [1] was “located in the ligand binding pocket of human PPARγ” and the melting point was 165 to 168 °C.
